Assay results published in US9216999B2, “Substituted pyrrolo[2,3-h][1,6]naphthyridines and compositions thereof as JAK inhibitors” (priority 2011, dated 2015).

Legend:
Assay type in all cases: biochemical
Settings in all cases: ATP 100 μM
JAK3 = JAK3 (Homo sapiens (Human), UniProt P52333); test: Enzyme assay (Assay Example^a 1), JAK3
Tyk2 = Tyk2 (Homo sapiens (Human), UniProt P29597); test: Enzyme assay (Assay Example^a 1), Tyk2
JAK2 = JAK2 (Homo sapiens (Human), UniProt O60674); test: Enzyme assay (Assay Example^a 1), JAK2
JAK1 = JAK1 (Homo sapiens (Human), UniProt P23458); test: Enzyme assay (Assay Example^a 1), JAK1

Sequence of JAK3 (P52333 whole entry): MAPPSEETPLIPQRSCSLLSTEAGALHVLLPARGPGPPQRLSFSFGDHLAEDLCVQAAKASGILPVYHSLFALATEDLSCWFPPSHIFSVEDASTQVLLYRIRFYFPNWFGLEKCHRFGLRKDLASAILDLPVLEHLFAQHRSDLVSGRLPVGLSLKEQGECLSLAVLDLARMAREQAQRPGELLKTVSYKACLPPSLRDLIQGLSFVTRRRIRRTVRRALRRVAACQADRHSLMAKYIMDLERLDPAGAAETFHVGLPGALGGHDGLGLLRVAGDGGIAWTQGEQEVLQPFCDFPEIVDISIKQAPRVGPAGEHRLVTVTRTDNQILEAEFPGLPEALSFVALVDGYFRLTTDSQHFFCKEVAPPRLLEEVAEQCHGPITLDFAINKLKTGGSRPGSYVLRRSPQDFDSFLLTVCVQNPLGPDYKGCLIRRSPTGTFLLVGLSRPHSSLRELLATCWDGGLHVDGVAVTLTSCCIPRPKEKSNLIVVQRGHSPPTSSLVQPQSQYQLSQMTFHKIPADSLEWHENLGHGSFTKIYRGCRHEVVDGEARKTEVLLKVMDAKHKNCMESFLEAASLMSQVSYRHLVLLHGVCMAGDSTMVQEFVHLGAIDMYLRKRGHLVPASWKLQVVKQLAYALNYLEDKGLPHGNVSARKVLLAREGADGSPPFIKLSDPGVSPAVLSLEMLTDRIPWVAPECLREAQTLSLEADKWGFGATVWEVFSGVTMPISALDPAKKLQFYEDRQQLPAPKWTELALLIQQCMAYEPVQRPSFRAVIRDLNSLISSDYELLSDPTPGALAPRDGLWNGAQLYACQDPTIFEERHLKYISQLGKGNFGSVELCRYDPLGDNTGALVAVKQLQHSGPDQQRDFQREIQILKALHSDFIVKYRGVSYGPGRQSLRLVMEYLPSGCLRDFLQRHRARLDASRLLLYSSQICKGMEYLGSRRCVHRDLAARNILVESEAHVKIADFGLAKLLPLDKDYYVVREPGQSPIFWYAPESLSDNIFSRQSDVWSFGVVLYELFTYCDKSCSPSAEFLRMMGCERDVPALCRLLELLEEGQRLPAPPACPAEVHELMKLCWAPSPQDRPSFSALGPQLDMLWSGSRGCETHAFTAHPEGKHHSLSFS
Sequence of Tyk2 (P29597 whole entry): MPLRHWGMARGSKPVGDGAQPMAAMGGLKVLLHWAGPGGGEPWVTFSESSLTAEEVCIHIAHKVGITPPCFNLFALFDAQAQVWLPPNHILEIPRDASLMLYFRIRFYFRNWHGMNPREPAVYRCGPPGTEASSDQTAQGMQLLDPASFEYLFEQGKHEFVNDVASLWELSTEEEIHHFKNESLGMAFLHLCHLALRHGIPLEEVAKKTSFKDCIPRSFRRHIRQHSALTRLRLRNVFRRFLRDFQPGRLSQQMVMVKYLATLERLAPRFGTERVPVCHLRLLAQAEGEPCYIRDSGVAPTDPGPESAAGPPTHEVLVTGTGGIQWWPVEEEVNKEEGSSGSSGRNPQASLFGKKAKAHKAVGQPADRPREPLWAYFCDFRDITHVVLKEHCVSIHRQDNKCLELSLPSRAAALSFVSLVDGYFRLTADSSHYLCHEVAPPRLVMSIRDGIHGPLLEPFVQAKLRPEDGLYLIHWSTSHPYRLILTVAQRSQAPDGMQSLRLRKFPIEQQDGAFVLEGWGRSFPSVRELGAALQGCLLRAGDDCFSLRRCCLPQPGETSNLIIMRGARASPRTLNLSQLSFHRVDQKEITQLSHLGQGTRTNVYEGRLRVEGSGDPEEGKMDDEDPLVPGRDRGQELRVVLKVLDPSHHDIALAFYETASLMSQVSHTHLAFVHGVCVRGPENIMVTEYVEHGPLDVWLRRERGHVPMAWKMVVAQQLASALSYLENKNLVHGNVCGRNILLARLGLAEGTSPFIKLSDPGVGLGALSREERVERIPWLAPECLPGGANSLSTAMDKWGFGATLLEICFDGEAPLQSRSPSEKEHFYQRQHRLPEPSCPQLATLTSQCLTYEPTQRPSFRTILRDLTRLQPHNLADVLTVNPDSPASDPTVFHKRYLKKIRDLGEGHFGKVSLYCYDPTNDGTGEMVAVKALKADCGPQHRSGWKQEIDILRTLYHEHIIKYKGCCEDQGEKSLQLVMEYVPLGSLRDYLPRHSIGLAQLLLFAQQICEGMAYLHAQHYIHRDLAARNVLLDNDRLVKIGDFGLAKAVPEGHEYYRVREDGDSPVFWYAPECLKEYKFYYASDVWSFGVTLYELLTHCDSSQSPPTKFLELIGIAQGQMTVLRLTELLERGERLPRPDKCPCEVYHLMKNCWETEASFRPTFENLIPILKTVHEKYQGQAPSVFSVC

Row | Compound | IC50 (JAK3) | IC50 (Tyk2) | IC50 (JAK2) | IC50 (JAK1) | IC50 (JAK3; Table^a 154) | IC50 (Tyk2; Table^a 154) | IC50 (JAK2; Table^a 154) | IC50 (JAK1; Table^a 154)
1 | CN(C)C1CN(C[C@H]2CC[C@H](c3nnn4cnc5[nH]ccc5c34)CC2)C1 [compound 423, 1-{[trans-4-(7H-pyrrolo[3,2-e][1,2,3]triazolo[1,5-c]pyrimidin-1-yl)cyclohexyl]methyl}-N,N-dimethylazetidin-3-amine] | > 1 µM | > 1 µM | 0.72 µM | 0.077 µM |  |  |  | 
2 | CC(C#N)[C@H]1CC[C@@H](c2nnn3cnc4[nH]ccc4c23)CC1 (stereo partly drawn) [439a, 2-[cis-4-(7H-Pyrrolo[3,2-e][1,2,3]triazolo[1,5-c]pyrimidin-1-yl)cyclohexyl]propanenitrile] | > 1 µM | > 1 µM | 0.34 µM | 0.13 µM |  |  |  | 
3 | O=S(=O)(C[C@H]1CC[C@H](c2nnn3cnc4[nH]ccc4c23)CC1)NCC(F)(F)F [compound 420, 1-[trans-4-(7H-pyrrolo[3,2-e][1,2,3]triazolo[1,5-c]pyrimidin-1-yl)cyclohexyl]-N-(2,2,2-trifluoroethyl)methanesulfonamide] | 0.41 µM | 0.3 µM | 0.015 µM | 0.0057 µM |  |  |  | 
4 | N#CC1CN(C[C@H]2CC[C@H](c3nnn4cnc5[nH]ccc5c34)CC2)C1 [compound 281, 1-{[trans-4-(7H-pyrrolo[3,2-e][1,2,3]triazolo[1,5-c]pyrimidin-1-yl)cyclohexyl]methyl}azetidine-3-carbonitrile] | 0.15 µM | 0.48 µM | 0.05 µM | 0.0077 µM |  |  |  | 
5 | FC(F)C(F)(F)Oc1ccc(CN2CCC(c3nnn4cnc5[nH]ccc5c34)CC2)cc1 [compound 169, 1-{1-[4-(1,1,2,2-tetrafluoroethoxy)benzyl]piperidin-4-yl}-7H-pyrrolo[3,2-e][1,2,3]triazolo[1,5-c]pyrimidine] |  |  |  |  | 0.58 µM | > 1 µM | 0.052 µM | 0.005 µM
6 | CCN(C)C1CN(C[C@H]2CC[C@H](c3nnn4cnc5[nH]ccc5c34)CC2)C1 [compound 424, 1-{[trans-4-(7H-pyrrolo[3,2-e][1,2,3]triazolo[1,5-c]pyrimidin-1-yl)cyclohexyl]methyl}-N-ethyl-N-methylazetidin-3-amine] | > 1 µM | > 1 µM | 0.48 µM | 0.044 µM |  |  |  | 
7 | N#Cc1cc(NC[C@H]2CC[C@H](c3nnn4cnc5[nH]ccc5c34)CC2)ccc1Cl [compound 263, 5-({[trans-4-(7H-pyrrolo[3,2-e][1,2,3]triazolo[1,5-c]pyrimidin-1-yl)cyclohexyl]methyl}amino)-2-chlorobenzonitrile] | > 1 µM | > 1 µM | 0.22 µM | 0.027 µM |  |  |  | 
8 | O=C(NC1CC1)[C@H]1CC[C@H](c2nnn3cnc4[nH]ccc4c23)CC1 [compound 359, trans-N-cyclopropyl-4-(7H-pyrrolo[3,2-e][1,2,3]triazolo[1,5-c]pyrimidin-1-yl)cyclohexanecarboxamide] | > 1 µM | 0.56 µM | 0.22 µM | 0.042 µM |  |  |  | 
9 | O=C1COc2ccc(NC[C@H]3CC[C@H](c4nnn5cnc6[nH]ccc6c45)CC3)cc2N1 [compound 274, 6-({[trans-4-(7H-pyrrolo[3,2-e][1,2,3]triazolo[1,5-c]pyrimidin-1-yl)cyclohexyl]methyl}amino)-2H-benzo[b][1,4]oxazin-3(4H)-one] | > 1 µM | 0.2 µM | 0.029 µM | 0.0035 µM |  |  |  | 
10 | Clc1ccc(NC2CCC(c3nnn4cnc5[nH]ccc5c34)CC2)cc1 (stereo not drawn) [compound 205, N-[4-(7H-Pyrrolo[3,2-e]r[1,2,3]triazolo[1,5-c]pyrimidin-1-yl)cyclohexyl]-4-chloroaniline] |  |  |  |  | > 1 µM | 0.75 µM | 0.25 µM | 0.026 µM
11 | OC1(C(F)(F)F)CN(C[C@H]2CC[C@H](c3nnn4cnc5[nH]ccc5c34)CC2)C1 [compound 425, 1-{[trans-4-(7H-Pyrrolo[3,2-e][1,2,3]triazolo[1,5-c]pyrimidin-1-yl)cyclohexyl]methyl}-3-(trifluoromethyl)azetidin-3-ol] | 0.082 µM | 0.37 µM | 0.022 µM | 0.0025 µM |  |  |  | 
12 | N#Cc1ccc(CN2CCC(c3nnn4cnc5[nH]cc(Cl)c5c34)CC2)cc1 [compound 377, 4-{[4-(9-Chloro-7H-pyrrolo[3,2-e][1,2,3]triazolo[1,5-c]pyrimidin-1-yl)piperidin-1-yl]methyl}benzonitrile] | 0.054 µM | > 1 µM | 0.017 µM | 0.0045 µM |  |  |  | 
13 | CN(C[C@H]1CC[C@H](c2nnn3cnc4[nH]ccc4c23)CC1)c1ccc(C#N)cc1 [compound 108] |  |  |  |  | 0.58 µM | 0.58 µM | 0.024 µM | 0.0039 µM
14 | Cc1ccc(CNC(=O)[C@H]2CC[C@H](c3nnn4cnc5[nH]ccc5c34)CC2)o1 [compound 349, trans-N-[(5-methylfuran-2-yl)methyl]-4-(7H-pyrrolo[3,2-e][1,2,3]triazolo[1,5-c]pyrimidin-1-yl)cyclohexanecarboxamide] | > 1 µM | 0.25 µM | 0.048 µM | 0.0059 µM |  |  |  | 
15 | N#CCC(=O)N(C[C@H]1CC[C@H](c2nnn3cnc4[nH]ccc4c23)CC1)C1CC1 [compound 409, N-{[trans-4-(7H-pyrrolo[3,2-e][1,2,3]triazolo[1,5-c]pyrimidin-1-yl)cyclohexyl]methyl}-2-cyano-N-cyclopropylacetamide] | 0.92 µM | 0.84 µM | 0.032 µM | 0.019 µM |  |  |  | 
16 | OCCN(C[C@H]1CC[C@H](c2nnn3cnc4[nH]ccc4c23)CC1)C1CCCCC1 [compound 306, 2-({[trans-4-(7H-pyrrolo[3,2-e][1,2,3]triazolo[1,5-c]pyrimidin-1-yl)cyclohexyl]methyl}(cyclohexyl)amino)ethanol] | > 1 µM | 0.62 µM | 0.054 µM | 0.015 µM |  |  |  | 
17 | N#CCCN(C[C@H]1CC[C@H](c2nnn3cnc4[nH]ccc4c23)CC1)c1ccccc1 [compound 300, 3-({[trans-4-(7H-pyrrolo[3,2-e][1,2,3]triazolo[1,5-c]pyrimidin-1-yl)cyclohexyl]methyl}(phenyl)amino)propanenitrile] | 0.75 µM | > 1 µM | 0.059 µM | 0.025 µM |  |  |  | 
18 | Cc1ccc(CN(C[C@H]2CC[C@H](c3nnn4cnc5[nH]ccc5c34)CC2)C(=O)CC#N)o1 [compound 410, N-{[trans-4-(7H-pyrrolo[3,2-e][1,2,3]triazolo[1,5-c]pyrimidin-1-yl)cyclohexyl]methyl}-2-cyano-N-[(5-methylfuran-2-yl)methyl]acetamide] | 0.32 µM | 0.58 µM | 0.04 µM | 0.022 µM |  |  |  | 
19 | OC[C@@H]1CCCN1C[C@H]1CC[C@H](c2nnn3cnc4[nH]ccc4c23)CC1 [compound 266, ((S)-1-{[trans-4-(7H-pyrrolo[3,2-e][1,2,3]triazolo[1,5-c]pyrimidin-1-yl)cyclohexyl]methyl}pyrrolidin-2-yl)methanol] | > 1 µM | 0.35 µM | 0.11 µM | 0.025 µM |  |  |  | 

Further lines, with some results ahead:

Row | IC50 (JAK3) | IC50 (Tyk2) | IC50 (JAK2) | IC50 (JAK1) | Compound | IC50 (JAK3; Table^a 154) | IC50 (Tyk2; Table^a 154) | IC50 (JAK2; Table^a 154) | IC50 (JAK1; Table^a 154)
20 | 0.28 µM | 0.39 µM | 0.027 µM | 0.0017 µM | CSc1ccc(C(O)(CN[C@H]2CC[C@H](c3nnn4cnc5[nH]ccc5c34)CC2)C(F)(F)F)cc1 (stereo partly drawn) [386b, 3-{[trans-4-(7H-pyrrolo[3,2-e][1,2,3]triazolo[1,5-c]pyrimidin-1-yl)cyclohexyl]amino}-1,1,1-trifluoro-2-[4-(methylthio)phenyl]propan-2-ol] |  |  |  | 
21 | 0.45 µM | 0.4 µM | 0.034 µM | 0.0043 µM | O=C(O)C1CN(C[C@H]2CC[C@H](c3nnn4cnc5[nH]ccc5c34)CC2)C1 [compound 278, 1-{[trans-4-(7H-pyrrolo[3,2-e][1,2,3]triazolo[1,5-c]pyrimidin-1-yl)cyclohexyl]methyl}azetidine-3-carboxylic acid] |  |  |  | 
22 | > 1 µM | 0.27 µM | 0.044 µM | 0.0085 µM | C#CCNC[C@H]1CC[C@H](c2nnn3cnc4[nH]ccc4c23)CC1 [compound 333, N-{[trans-4-(7H-pyrrolo[3,2-e][1,2,3]triazolo[1,5-c]pyrimidin-1-yl)cyclohexyl]methyl}prop-2-yn-1-amine] |  |  |  | 
23 | 0.61 µM | 0.068 µM | 0.12 µM | 0.0091 µM | c1cc2c(ncn3nnc([C@H]4CC[C@H](CNCC5CC5)CC4)c23)[nH]1 [compound 285, 1-[trans-4-(7H-pyrrolo[3,2-e][1,2,3]triazolo[1,5-c]pyrimidin-1-yl)cyclohexyl]-N-(cyclopropylmethyl)methanamine] |  |  |  | 
24 | 0.71 µM | 0.12 µM | 0.027 µM | 0.0081 µM | C=C1CCC(c2nnn3cnc4[nH]ccc4c23)CC1 [compound 433, 1-(4-Methylenecyclohexyl)-7H-pyrrolo[3,2-e][1,2,3]triazolo[1,5-c]pyrimidine] |  |  |  | 
25 | 0.75 µM | 0.29 µM | 0.051 µM | 0.0099 µM | NC(=O)[C@H]1CC[C@H](c2nnn3cnc4[nH]ccc4c23)CC1 [compound 348, trans-4-(7H-pyrrolo[3,2-e][1,2,3]triazolo[1,5-c]pyrimidin-1-yl)cyclohexanecarboxamide] |  |  |  | 
26 | 0.66 µM | 0.29 µM | 0.11 µM | 0.013 µM | O[C@@H]1Cc2ccccc2[C@@H]1NC1CCC(c2nnn3cnc4[nH]ccc4c23)CC1 (mixture of isomers) [compound 379, (1S,2R)-1-{[4-(7H-pyrrolo[3,2-e][1,2,3]triazolo[1,5-c]pyrimidin-1-yl)cyclohexyl]amino}-2,3-dihydro-1H-inden-2-ol] |  |  |  | 
27 | 0.03 µM | 0.016 µM | 0.0012 µM | 0.00016 µM | CS(=O)(=O)NC[C@H]1CC[C@H](c2nnn3cnc4[nH]ccc4c23)CC1 [compound 427, N-{[trans-4-(7H-Pyrrolo[3,2-e][1,2,3]triazolo[1,5-c]pyrimidin-1-yl)cyclohexyl]methyl}methanesulfonamide] |  |  |  | 
